# Source: US8802597B2, “Herbicidal pyrimidines” (E I du Pont de Nemours and Company, priority 2003, dated 2014)
# Key:
# Format in all cases: in vivo
# [1] = system: rice flatsedge (Cyperus iria); test: Test E flooded paddy water application; details: Flood, 21 days, scale 0 to 100 (0 no effect, 100 complete control)
# Method in brief: (§1)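 Response scored visually on a 0–100 scale (100 = complete control) at 21 days against untreated pots. Treatment was into paddy water 3 cm deep over silt loam, with plants at the 2.0–2.5-leaf stage, grown under 16-h light at 29.5/26.7 °C day/night.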
# [2] = system: water seeded rice seedlings (Oryza sativa cv. ‘Japonica-M202’); test: Test E flooded paddy water application; details: Flood, 21 days, scale 0 to 100 (0 no effect, 100 complete control)
# Method in brief: as §1
# [3] = system: late watergrass (Echinochloa oryzicola); test: Test E flooded paddy water application; details: Flood, 21 days, scale 0 to 100 (0 no effect, 100 complete control)
# Method in brief: as §1
# [4] = system: canarygrass (Phalaris minor); test: Test C postemergence
# Method in brief: (§2)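 We sprayed seeded pots preemergence and 2–18 cm seedlings postemergence with test chemicals in a non-phytotoxic solvent mixture including surfactant. Greenhouse plants were visually compared with untreated controls at 12 to 14 days and scored 0 (no effect) to 100 (complete control).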
# [5] = system: downy brome (Bromus tectorum); test: Test C postemergence
# Method in brief: as §2
# [6] = system: windgrass (Apera spica-venti); test: Test C postemergence
# Method in brief: as §2
# [7] = system: winter barley (Hordeum vulgare); test: Test C postemergence
# Method in brief: as §2
# [8] = system: blackgrass (Alopecurus myosuroides); test: Test C postemergence
# Method in brief: as §2
# [9] = system: Italian ryegrass (Lolium multiflorum); test: Test C postemergence
# Method in brief: as §2
# [10] = system: wheat (Triticum aestivum); test: Test C postemergence
# Method in brief: as §2
# [11] = system: green foxtail (Setaria viridis); test: Test C postemergence
# Method in brief: as §2
compound,measurement,setting,value
Nc1nc(-c2ccc(Cl)cc2)nc(C(=O)O)c1Br [Compound 88],"Flatsedge, Rice plant response rating",[1]; 32 g ai/ha,85
same,"Flatsedge, Rice plant response rating",[1]; 64 g ai/ha,100
same,"Flatsedge, Rice plant response rating",[1]; 125 g ai/ha,100
same,"Flatsedge, Rice plant response rating",[1]; 250 g ai/ha,100
same,"Plant response rating, Flatsedge, Rice",[1]; 16 g ai/ha,50
same,"Rice, Water Seeded plant response rating",[2]; 32 g ai/ha,0
same,"Rice, Water Seeded plant response rating",[2]; 64 g ai/ha,0
same,"Rice, Water Seeded plant response rating",[2]; 125 g ai/ha,0
same,"Rice, Water Seeded plant response rating",[2]; 250 g ai/ha,0
same,"Plant response rating, Rice, Water Seeded",[2]; 16 g ai/ha,0
same,"Watergrass, Late plant response rating",[3]; 32 g ai/ha,0
same,"Watergrass, Late plant response rating",[3]; 64 g ai/ha,0
same,"Watergrass, Late plant response rating",[3]; 125 g ai/ha,0
same,"Watergrass, Late plant response rating",[3]; 250 g ai/ha,0
same,"Plant response rating, Watergrass, Late",[3]; 16 g ai/ha,0
Cc1ccc(-c2nc(N)c(Cl)c(C(=O)O)n2)cc1 [Compound 91],"Rice, Water Seeded plant response rating",[2]; 32 g ai/ha,0
same,"Rice, Water Seeded plant response rating",[2]; 64 g ai/ha,10
same,"Rice, Water Seeded plant response rating",[2]; 125 g ai/ha,10
same,"Rice, Water Seeded plant response rating",[2]; 250 g ai/ha,20
same,"Plant response rating, Rice, Water Seeded",[2]; 16 g ai/ha,0
same,"Watergrass, Late plant response rating",[3]; 32 g ai/ha,0
same,"Watergrass, Late plant response rating",[3]; 64 g ai/ha,0
same,"Watergrass, Late plant response rating",[3]; 125 g ai/ha,0
same,"Watergrass, Late plant response rating",[3]; 250 g ai/ha,0
same,"Plant response rating, Watergrass, Late",[3]; 16 g ai/ha,0
COC(=O)c1nc(-c2ccc(C(F)(F)F)cc2)nc(N)c1Cl [Compound 44],"Rice, Water Seeded plant response rating",[2]; 32 g ai/ha,0
same,"Rice, Water Seeded plant response rating",[2]; 64 g ai/ha,0
same,"Rice, Water Seeded plant response rating",[2]; 125 g ai/ha,0
same,"Rice, Water Seeded plant response rating",[2]; 250 g ai/ha,0
same,"Rice, Water Seeded plant response rating",[2]; 500 g ai/ha,20
same,"Watergrass, Late plant response rating",[3]; 32 g ai/ha,0
same,"Watergrass, Late plant response rating",[3]; 64 g ai/ha,0
same,"Watergrass, Late plant response rating",[3]; 125 g ai/ha,0
same,"Watergrass, Late plant response rating",[3]; 250 g ai/ha,0
same,"Watergrass, Late plant response rating",[3]; 500 g ai/ha,20
COC(=O)c1nc(-c2ccc(I)cc2)nc(N)c1Br [Compound 128],"Flatsedge, Rice plant response rating",[1]; 32 g ai/ha,0
same,"Flatsedge, Rice plant response rating",[1]; 64 g ai/ha,0
same,"Flatsedge, Rice plant response rating",[1]; 125 g ai/ha,60
same,"Flatsedge, Rice plant response rating",[1]; 250 g ai/ha,80
same,"Plant response rating, Flatsedge, Rice",[1]; 16 g ai/ha,0
same,"Rice, Water Seeded plant response rating",[2]; 32 g ai/ha,0
same,"Rice, Water Seeded plant response rating",[2]; 64 g ai/ha,0
same,"Rice, Water Seeded plant response rating",[2]; 125 g ai/ha,0
same,"Rice, Water Seeded plant response rating",[2]; 250 g ai/ha,0
same,"Plant response rating, Rice, Water Seeded",[2]; 16 g ai/ha,0
same,"Watergrass, Late plant response rating",[3]; 32 g ai/ha,0
same,"Watergrass, Late plant response rating",[3]; 64 g ai/ha,0
same,"Watergrass, Late plant response rating",[3]; 125 g ai/ha,0
same,"Watergrass, Late plant response rating",[3]; 250 g ai/ha,0
same,"Plant response rating, Watergrass, Late",[3]; 16 g ai/ha,0
Nc1nc(-c2ccc(Cl)cc2)nc(C(=O)[O-])c1Cl.[Na+] [Compound 117],"Flatsedge, Rice plant response rating",[1]; 32 g ai/ha,100
same,"Flatsedge, Rice plant response rating",[1]; 64 g ai/ha,100
same,"Flatsedge, Rice plant response rating",[1]; 125 g ai/ha,100
same,"Flatsedge, Rice plant response rating",[1]; 250 g ai/ha,100
same,"Plant response rating, Flatsedge, Rice",[1]; 16 g ai/ha,100
same,"Rice, Water Seeded plant response rating",[2]; 32 g ai/ha,0
same,"Rice, Water Seeded plant response rating",[2]; 64 g ai/ha,0
same,"Rice, Water Seeded plant response rating",[2]; 125 g ai/ha,0
same,"Rice, Water Seeded plant response rating",[2]; 250 g ai/ha,0
same,"Plant response rating, Rice, Water Seeded",[2]; 16 g ai/ha,0
same,"Watergrass, Late plant response rating",[3]; 32 g ai/ha,0
same,"Watergrass, Late plant response rating",[3]; 64 g ai/ha,0
same,"Watergrass, Late plant response rating",[3]; 125 g ai/ha,0
same,"Watergrass, Late plant response rating",[3]; 250 g ai/ha,0
same,"Plant response rating, Watergrass, Late",[3]; 16 g ai/ha,0
CNc1nc(C2CC2)nc(C(=O)OC)c1Cl [Compound 79],"Plant response rating (scale of 0 to 100), Canarygrass",[4]; 16 g ai/ha,0
same,"Plant response rating (scale of 0 to 100), Canarygrass",[4]; 31 g ai/ha,20
same,"Plant response rating (scale of 0 to 100), Canarygrass",[4]; 62 g ai/ha,25
same,pest or weed control at 125 g/ha,"[4]; Phalaris minor, post-emergence, 125 g ai/ha, scale 0 to 100 (0 no effect, 100 complete control), read-out: Canarygrass plant response rating",35%
same,"Plant response rating (scale of 0 to 100), Bromegrass, Downy",[5]; 16 g ai/ha,0
same,"Plant response rating (scale of 0 to 100), Bromegrass, Downy",[5]; 31 g ai/ha,20
same,"Plant response rating (scale of 0 to 100), Bromegrass, Downy",[5]; 62 g ai/ha,30
same,pest or weed control at 125 g/ha,"[5]; Bromus tectorum, post-emergence, 125 g ai/ha, scale 0 to 100 (0 no effect, 100 complete control), read-out: Bromegrass, Downy plant response rating",35%
same,"Plant response rating (scale of 0 to 100), Windgrass",[6]; 16 g ai/ha,40
same,"Plant response rating (scale of 0 to 100), Windgrass",[6]; 31 g ai/ha,40
same,"Plant response rating (scale of 0 to 100), Windgrass",[6]; 62 g ai/ha,45
same,pest or weed control at 125 g/ha,"[6]; Apera spica-venti, post-emergence, 125 g ai/ha, scale 0 to 100 (0 no effect, 100 complete control), read-out: Windgrass plant response rating",50%
same,"Plant response rating (scale of 0 to 100), Barley",[7]; 16 g ai/ha,0
same,"Plant response rating (scale of 0 to 100), Barley",[7]; 31 g ai/ha,30
same,plant injury at 62 g/ha,"[7]; Hordeum vulgare, post-emergence, 62 g ai/ha, scale 0 to 100 (0 no effect, 100 complete control), read-out: Barley plant response rating",35%
same,plant injury at 125 g/ha,"[7]; Hordeum vulgare, post-emergence, 125 g ai/ha, scale 0 to 100 (0 no effect, 100 complete control), read-out: Barley plant response rating",35%
same,"Plant response rating (scale of 0 to 100), Blackgrass",[8]; 16 g ai/ha,20
same,"Plant response rating (scale of 0 to 100), Blackgrass",[8]; 31 g ai/ha,40
same,"Plant response rating (scale of 0 to 100), Blackgrass",[8]; 62 g ai/ha,60
same,pest or weed control at 125 g/ha,"[8]; Alopecurus myosuroides, post-emergence, 125 g ai/ha, scale 0 to 100 (0 no effect, 100 complete control), read-out: Blackgrass plant response rating",60%
same,"Plant response rating (scale of 0 to 100), Ryegrass, Italian",[9]; 16 g ai/ha,35
same,"Plant response rating (scale of 0 to 100), Ryegrass, Italian",[9]; 31 g ai/ha,35
same,"Plant response rating (scale of 0 to 100), Ryegrass, Italian",[9]; 62 g ai/ha,40
same,pest or weed control at 125 g/ha,"[9]; Lolium multiflorum, post-emergence, 125 g ai/ha, scale 0 to 100 (0 no effect, 100 complete control), read-out: Ryegrass, Italian plant response rating",45%
same,"Plant response rating (scale of 0 to 100), Wheat",[10]; 16 g ai/ha,0
same,"Plant response rating (scale of 0 to 100), Wheat",[10]; 31 g ai/ha,20
same,"Plant response rating (scale of 0 to 100), Wheat",[10]; 62 g ai/ha,30
same,plant injury at 125 g/ha,"[10]; Triticum aestivum, post-emergence, 125 g ai/ha, scale 0 to 100 (0 no effect, 100 complete control), read-out: Wheat plant response rating",40%
same,"Plant response rating (scale of 0 to 100), Foxtail, Green",[11]; 16 g ai/ha,20
same,"Plant response rating (scale of 0 to 100), Foxtail, Green",[11]; 31 g ai/ha,20
same,"Plant response rating (scale of 0 to 100), Foxtail, Green",[11]; 62 g ai/ha,30
same,pest or weed control at 125 g/ha,"[11]; Setaria viridis, post-emergence, 125 g ai/ha, scale 0 to 100 (0 no effect, 100 complete control), read-out: Foxtail, Green plant response rating",60%
CCOC(=O)c1nc(-c2ccc3c(c2)OCO3)nc(N)c1Cl [Compound 74],"Flatsedge, Rice plant response rating",[1]; 32 g ai/ha,0
same,"Flatsedge, Rice plant response rating",[1]; 64 g ai/ha,0
same,"Flatsedge, Rice plant response rating",[1]; 125 g ai/ha,90
same,"Flatsedge, Rice plant response rating",[1]; 250 g ai/ha,95
same,"Plant response rating, Flatsedge, Rice",[1]; 16 g ai/ha,0
same,"Rice, Water Seeded plant response rating",[2]; 32 g ai/ha,0
same,"Rice, Water Seeded plant response rating",[2]; 64 g ai/ha,0
same,"Rice, Water Seeded plant response rating",[2]; 125 g ai/ha,0
same,"Rice, Water Seeded plant response rating",[2]; 250 g ai/ha,0
same,"Plant response rating, Rice, Water Seeded",[2]; 16 g ai/ha,0
same,"Watergrass, Late plant response rating",[3]; 32 g ai/ha,0
same,"Watergrass, Late plant response rating",[3]; 64 g ai/ha,0
same,"Watergrass, Late plant response rating",[3]; 125 g ai/ha,0
same,"Watergrass, Late plant response rating",[3]; 250 g ai/ha,0
same,"Plant response rating, Watergrass, Late",[3]; 16 g ai/ha,0
CCOC(=O)c1nc(-c2ccc(I)cc2)nc(N)c1Cl [Compound 133],"Flatsedge, Rice plant response rating",[1]; 64 g ai/ha,95
same,"Flatsedge, Rice plant response rating",[1]; 125 g ai/ha,95
same,"Flatsedge, Rice plant response rating",[1]; 250 g ai/ha,100
same,"Plant response rating, Flatsedge, Rice",[1]; 16 g ai/ha,30
same,"Plant response rating, Flatsedge, Rice",[1]; 32 g ai/ha,65
same,"Rice, Water Seeded plant response rating",[2]; 64 g ai/ha,0
same,"Rice, Water Seeded plant response rating",[2]; 125 g ai/ha,0
same,"Rice, Water Seeded plant response rating",[2]; 250 g ai/ha,35
same,"Plant response rating, Rice, Water Seeded",[2]; 16 g ai/ha,0
same,"Plant response rating, Rice, Water Seeded",[2]; 32 g ai/ha,0
same,"Watergrass, Late plant response rating",[3]; 64 g ai/ha,0
same,"Watergrass, Late plant response rating",[3]; 125 g ai/ha,0
same,"Watergrass, Late plant response rating",[3]; 250 g ai/ha,0
same,"Plant response rating, Watergrass, Late",[3]; 16 g ai/ha,0
same,"Plant response rating, Watergrass, Late",[3]; 32 g ai/ha,0
